In EP1383793B1 (priority 2000, dated 2001):
Like-named read-outs stand apart in the source and are kept apart here. Residues, ends and D or L forms follow the SMILES beside them. No end group written: not given here. *: point of attachment. Biotin = O=C1N[C@H]2[C@H](CS[C@H]2CCCCC(=O)*)N1

Tests used:
adipocytes = experiment: 3H-glucose uptake into adipocytes (fat cell assay, FFC); type: cell-based, Mouse; details: Subjective ranking; basal and sub maximal insulin; includes series A
[1] = Precipitate in diluted peptide stock prior to adding to the fat cell assay; solubility under assay conditions; type: physicochemical; details: diluted stock prior to adding to assay
[2] = molecular target: T1, human insulin receptor (HIR) (Homo sapiens, UniProt P06213); experiment: 125I-insulin competition binding assay on solubilised purified receptor
T1 construct: made in house

[3] = molecular target: human IGF-1 receptor (HIGF-1R) (Homo sapiens, UniProt P08069); experiment: 125I-IGF-1 competition binding assay on solubilised purified receptor
IGF-1R = molecular target: T2, IGF-1R (Homo sapiens, UniProt P08069); experiment: IGF-1R peptide assay, time-resolved FRET, competition with biotinylated 20E2 (IC50); type: binding
T2 construct: Soluble IGF-1R was obtained from R&D Systems; purchased R&D Systems 391-GR/CF
Description: Assays have been developed using Time-Resolved Fluorescence Resonance Energy Transfer (FRET). These assays are not radioactive, homogeneous (no wash steps), and can be rapidly carried out in 96- or 384-well microtiter plate format facilitating their use in high-throughput screening assays for small organic molecules.
The IGF-1R was labeled with Europium (Eu) by EG&G Wallac.
The Streptavidin-Allophycocynanin (SA-APC) was obtained from Prozyme Cat. # PJ25S.
• a. Preparation of the Assay Mix. […] This mixture was allowed to pre-incubate at RT in the dark for 1-2 h before competitor was added. • b. […] 100 µl of Buffer (TBS pH 8.0 + 0.1 % BSA) were dispensed to wells in columns 1 through 11. Competitors and Buffer were added to Column 12 wells so that the total volume is 150 µl. • c. […] Compounds are dissolved in 100% DMSO. Therefore, 100 µl of Buffer (TBS pH 8.0 + 0.1 % BSA) with 4% DMSO are dispensed to wells in columns 1 through 10. […] Compounds (6 µl) are added into 144 µl Buffer (No DMSO) to Column 12 wells. • d. Dilutions were performed across columns on the plate. Once competitors were dispensed into Column 12 and mixed, 50 µl of the solution Column 12 were transferred to wells in 11 and mixed. 50 µl of the Column 11 mixture was transferred to Column 10 wells. This was repeated until 50 µl of Column 3 mixture was transferred to Column 2 wells. Once accomplished to Column 2, 50 µl from Column 2 were removed and discarded. Column 1 wells were reserved for No Competitor Wells. 100 µl volume was therefore maintained across all columns. • e. 50 µl of the Assay Mix was dispensed into wells on a new 96-well microtiter plate. 50 µl from the Dilutions Plate were then added to this plate. • f. […] This covered plate was allowed to incubate at RT overnight. • g. […] Compounds begin at 200 µM in a working concentration of 2% DMSO. Controls also contained 2% DMSO.

T1 sequence (P06213 28-758 limits assumed): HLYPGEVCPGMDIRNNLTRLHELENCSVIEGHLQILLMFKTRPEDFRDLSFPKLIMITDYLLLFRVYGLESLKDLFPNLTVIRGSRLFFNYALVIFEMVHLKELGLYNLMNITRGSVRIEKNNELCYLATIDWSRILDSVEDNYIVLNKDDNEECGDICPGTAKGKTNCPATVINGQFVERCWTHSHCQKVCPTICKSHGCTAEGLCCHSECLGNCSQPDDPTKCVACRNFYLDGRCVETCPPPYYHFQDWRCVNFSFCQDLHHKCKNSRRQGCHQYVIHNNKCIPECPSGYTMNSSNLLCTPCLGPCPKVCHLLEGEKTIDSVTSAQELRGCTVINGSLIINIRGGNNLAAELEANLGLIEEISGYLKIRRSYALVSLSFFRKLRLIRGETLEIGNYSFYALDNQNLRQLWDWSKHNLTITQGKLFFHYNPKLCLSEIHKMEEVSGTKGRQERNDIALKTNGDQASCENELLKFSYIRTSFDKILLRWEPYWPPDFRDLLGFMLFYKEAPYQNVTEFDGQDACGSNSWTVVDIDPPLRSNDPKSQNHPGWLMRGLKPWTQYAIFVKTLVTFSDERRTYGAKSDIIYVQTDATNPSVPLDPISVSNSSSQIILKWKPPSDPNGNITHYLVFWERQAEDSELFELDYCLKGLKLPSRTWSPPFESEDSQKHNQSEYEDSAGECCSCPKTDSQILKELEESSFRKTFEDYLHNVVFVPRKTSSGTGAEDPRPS
T1 sequence (P06213 763-1382 limits assumed): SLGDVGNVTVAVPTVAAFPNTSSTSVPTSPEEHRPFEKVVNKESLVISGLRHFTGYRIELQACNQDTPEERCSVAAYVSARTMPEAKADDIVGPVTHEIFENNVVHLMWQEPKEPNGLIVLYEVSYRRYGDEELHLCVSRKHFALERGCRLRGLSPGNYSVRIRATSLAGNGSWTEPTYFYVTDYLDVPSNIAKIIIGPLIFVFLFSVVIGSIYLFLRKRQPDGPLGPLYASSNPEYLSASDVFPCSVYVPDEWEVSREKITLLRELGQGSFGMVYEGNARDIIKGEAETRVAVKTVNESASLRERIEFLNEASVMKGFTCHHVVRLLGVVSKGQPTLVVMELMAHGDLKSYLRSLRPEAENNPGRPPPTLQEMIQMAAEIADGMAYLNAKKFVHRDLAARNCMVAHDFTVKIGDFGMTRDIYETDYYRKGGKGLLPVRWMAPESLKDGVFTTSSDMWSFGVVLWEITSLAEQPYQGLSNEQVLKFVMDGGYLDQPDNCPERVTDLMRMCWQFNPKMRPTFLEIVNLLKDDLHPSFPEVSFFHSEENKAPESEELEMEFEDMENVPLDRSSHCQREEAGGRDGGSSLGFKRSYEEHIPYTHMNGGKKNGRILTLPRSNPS

Compound	Kd ([2]; read-out: Kd (µM) HIR)	Kd [3]	IC50 (IGF-1R)	Kd ([2]; read-out: HIR affinity)	further results
CC(C)C[C@H](NC(=O)[C@@H](NC(=O)[C@@H](N)CCCCN)C(C)C)C(=O)N[C@@H](CCC(N)=O)C(=O)N[C@@H](C)C(=O)N[C@@H](CCCNC(=N)N)C(=O)N[C@@H](Cc1c[nH]cn1)C(=O)NCC(=O)N[C@@H](CS)C(=O)N[C@@H](CC(=O)O)C(=O)N[C@@H](CO)C(=O)N[C@H](C(=O)N[C@@H](CO)C(=O)N[C@@H](CC(=O)O)C(=O)N[C@@H](CS)C(=O)N[C@@H](Cc1ccccc1)C(=O)N[C@@H](Cc1ccc(O)cc1)C(=O)N[C@@H](CCC(=O)O)C(=O)N[C@@H](Cc1c[nH]c2ccccc12)C(=O)N[C@@H](Cc1ccccc1)C(=O)N[C@@H](C)C(=O)N[C@@H](CCCCN)C(=O)N[C@@H](CCCCNC(=O)CCCC[C@@H]1SC[C@@H]2NC(=O)N[C@@H]21)C(N)=O)C(C)C [Clone D102] (H-KVLQARHGCDSVSDCFYEWFAKK(Biotin)-NH2; N-terminus assumed)					Resp. (adipocytes): 0; Comments (precipitation) [1]: Precipitates
CC(C)C[C@H](NC(=O)[C@H](CCC(N)=O)NC(=O)[C@H](CCC(N)=O)NC(=O)[C@H](CO)NC(=O)[C@H](CCCNC(=N)N)NC(=O)[C@H](CS)NC(=O)[C@H](CC(N)=O)NC(=O)[C@H](Cc1c[nH]c2ccccc12)NC(=O)[C@H](Cc1ccccc1)NC(=O)[C@@H](NC(=O)[C@@H](N)CCCCN)C(C)C)C(=O)N[C@@H](CC(=O)O)C(=O)N[C@@H](Cc1ccccc1)C(=O)N[C@@H](Cc1ccc(O)cc1)C(=O)N[C@@H](CCC(=O)O)C(=O)N[C@@H](Cc1c[nH]c2ccccc12)C(=O)N[C@@H](Cc1ccccc1)C(=O)N[C@@H](CCC(=O)O)C(=O)N[C@@H](CCC(N)=O)C(=O)N[C@@H](C)C(=O)N[C@@H](C)C(=O)N[C@@H](CCCCN)C(=O)N[C@@H](CCCCNC(=O)CCCC[C@@H]1SC[C@@H]2NC(=O)N[C@@H]21)C(N)=O [Clone D106] (H-KVFWNCRSQQLDFYEWFEQAAKK(Biotin)-NH2)	0.97 µM	6.2 µM			
CC(C)C[C@H](NC(=O)[C@H](C)NC(=O)[C@H](C)NC(=O)[C@H](CCC(N)=O)NC(=O)[C@@H]1CCCN1C(=O)[C@@H](NC(=O)[C@@H](NC(=O)[C@H](Cc1ccc(O)cc1)NC(=O)[C@H](Cc1c[nH]cn1)NC(=O)[C@H](CO)NC(=O)[C@H](CCC(=O)O)NC(=O)[C@H](CC(C)C)NC(=O)[C@@H](N)CCCCN)C(C)C)C(C)C)C(=O)N[C@@H](CC(=O)O)C(=O)N[C@@H](CCCNC(=N)N)C(=O)N[C@@H](CC(C)C)C(=O)N[C@@H](Cc1ccccc1)C(=O)N[C@@H](Cc1ccc(O)cc1)C(=O)N[C@@H](CO)C(=O)N[C@@H](Cc1c[nH]c2ccccc12)C(=O)N[C@@H](Cc1ccccc1)C(=O)N[C@@H](CO)C(=O)N[C@@H](CCCCN)C(=O)N[C@@H](CCCCNC(=O)CCCC[C@@H]1SC[C@@H]2NC(=O)N[C@@H]21)C(N)=O [Clone D107] (H-KLESHYVVPQAALDRLFYSWFSKK(Biotin)-NH2)	1.1 µM	9.7 µM			
CC(C)C[C@H](NC(=O)[C@H](CCC(N)=O)NC(=O)[C@H](CCCNC(=N)N)NC(=O)[C@H](CO)NC(=O)[C@H](Cc1ccccc1)NC(=O)[C@H](Cc1c[nH]c2ccccc12)NC(=O)CNC(=O)[C@H](Cc1ccc(O)cc1)NC(=O)[C@H](Cc1ccccc1)NC(=O)[C@@H](N)CCCCN)C(=O)N[C@@H](CO)C(=O)N[C@@H](CC(C)C)C(=O)N[C@H](C(=O)N1CCC[C@H]1C(=O)N[C@@H](CCCNC(=N)N)C(=O)N[C@@H](CC(=O)O)C(=O)N[C@@H](CC(=O)O)C(=O)N[C@@H](Cc1c[nH]c2ccccc12)C(=O)NCC(=O)N[C@@H](CC(C)C)C(=O)N1CCC[C@H]1C(=O)N[C@@H](CCCCN)C(=O)N[C@@H](CCCCNC(=O)CCCC[C@@H]1SC[C@@H]2NC(=O)N[C@@H]21)C(N)=O)[C@@H](C)O [Clone D108] (H-KFYGWFSRQLSLTPRDDWGLPKK(Biotin)-NH2)	2.3 µM	19 µM			
CC(C)C[C@H](NC(=O)CNC(=O)[C@H](CC(=O)O)NC(=O)[C@H](CCC(N)=O)NC(=O)[C@H](CCCCN)NC(=O)[C@H](CC(N)=O)NC(=O)[C@H](CO)NC(=O)[C@@H](NC(=O)[C@H](CC(C)C)NC(=O)CNC(=O)[C@@H]1CCCN1C(=O)[C@H](C)NC(=O)[C@H](CO)NC(=O)[C@@H](N)CCCCN)C(C)C)C(=O)N[C@@H](Cc1ccccc1)C(=O)N[C@@H](Cc1ccc(O)cc1)C(=O)N[C@@H](CO)C(=O)N[C@@H](Cc1c[nH]c2ccccc12)C(=O)N[C@@H](Cc1ccccc1)C(=O)N[C@@H](CCCNC(=N)N)C(=O)N[C@@H](CCC(=O)O)C(=O)N[C@@H](CCCCN)C(=O)N[C@@H](CCCCNC(=O)CCCC[C@@H]1SC[C@@H]2NC(=O)N[C@@H]21)C(N)=O [Clone D109] (H-KSAPGLVSNKQDGLFYSWFREKK(Biotin)-NH2)	3.6 µM	12 µM			
CC(C)[C@H](NC(=O)[C@H](Cc1ccccc1)NC(=O)[C@H](Cc1c[nH]c2ccccc12)NC(=O)[C@H](CC(=O)O)NC(=O)[C@H](Cc1ccc(O)cc1)NC(=O)[C@H](Cc1ccccc1)NC(=O)[C@H](CC(N)=O)NC(=O)[C@H](CCCCN)NC(=O)[C@H](C)NC(=O)[C@@H](N)CO)C(=O)N[C@@H](CCCCN)C(=O)N[C@@H](CCCCNC(=O)CCCC[C@@H]1SC[C@@H]2NC(=O)N[C@@H]21)C(N)=O [Clone D114] (H-SAKNFYDWFVKK(Biotin)-NH2)	8.1 µM	> 20 µM			
CSCC[C@H](NC(=O)[C@H](Cc1ccccc1)NC(=O)[C@H](Cc1c[nH]c2ccccc12)NC(=O)[C@H](CC(=O)O)NC(=O)[C@H](Cc1ccc(O)cc1)NC(=O)[C@H](Cc1ccccc1)NC(=O)[C@H](CC(N)=O)NC(=O)[C@H](CCCCN)NC(=O)[C@H](CC(=O)O)NC(=O)[C@H](C)N)C(=O)N[C@@H](C)C(=O)N[C@@H](C)C(=O)N[C@@H](CCCCN)C(=O)N[C@@H](CCCCNC(=O)CCCC[C@@H]1SC[C@@H]2NC(=O)N[C@@H]21)C(N)=O [Clone D115] (H-ADKNFYDWFMAAKK(Biotin)-NH2)	8.1 µM	> 20 µM			
CC(C)[C@H](NC(=O)[C@H](Cc1ccccc1)NC(=O)[C@H](Cc1c[nH]c2ccccc12)NC(=O)[C@H](CC(=O)O)NC(=O)[C@H](Cc1ccc(O)cc1)NC(=O)[C@H](Cc1ccccc1)NC(=O)[C@H](CC(N)=O)NC(=O)[C@H](CCC(=O)O)NC(=O)[C@H](Cc1c[nH]cn1)NC(=O)[C@H](Cc1ccccc1)NC(=O)[C@@H](N)CCCCN)C(=O)N[C@@H](CCCNC(=N)N)C(=O)N[C@@H](CCC(N)=O)C(=O)N[C@H](C(=O)N[C@@H](CO)C(=O)N[C@@H](CCCCN)C(=O)N[C@@H](CCCCNC(=O)CCCC[C@@H]1SC[C@@H]2NC(=O)N[C@@H]21)C(N)=O)C(C)C [Clone D117K]	0.82 µM	9.1 µM			
TFYSCLASLLTGTPQPNRGPWERCR [20C-3-G3-IGFR]			0.184 µM		

Further lines, with some results ahead:

Kd ([2]; read-out: Kd (µM) HIR)	Kd [3]	IC50 (IGF-1R)	Kd ([2]; read-out: HIR affinity)	Compound	further results
		5.62 µM		CSCC[C@H](NC(=O)[C@H](CC(C)C)NC(=O)[C@H](CCCNC(=N)N)NC(=O)[C@H](CC(=O)O)NC(=O)[C@H](CC(C)C)NC(=O)[C@H](C)NC(=O)[C@H](CC(=O)O)NC(=O)[C@@H](N)CC(C)C)C(=O)N[C@@H](CCCNC(=N)N)C(=O)N[C@@H](Cc1ccc(O)cc1)C(=O)N[C@@H](Cc1ccccc1)C(=O)N[C@@H](CCC(=O)O)C(=O)N[C@@H](CCC(=O)O)C(=O)N[C@@H](CCCNC(=N)N)C(=O)N1CCC[C@H]1C(=O)N[C@@H](CO)C(=O)N[C@@H](CC(C)C)C(N)=O [Clone S173]	
		1.46 µM	16 µM	CC(C)C[C@H](NC(=O)[C@@H]1CCCN1)C(=O)N[C@@H](C)C(=O)N[C@@H](CCC(=O)O)C(=O)N[C@@H](CC(C)C)C(=O)N[C@@H](Cc1c[nH]c2ccccc12)C(=O)N[C@@H](C)C(=O)N[C@@H](Cc1ccc(O)cc1)C(=O)N[C@@H](Cc1ccccc1)C(=O)N[C@@H](CCC(=O)O)C(=O)N[C@@H](Cc1c[nH]cn1)C(=O)N[C@@H](CO)C(=O)N[C@@H](CCC(=O)O)C(=O)N[C@@H](CCC(N)=O)C(=O)NCC(=O)N[C@@H](CCCNC(=N)N)C(=O)N[C@@H](CO)C(=O)N[C@@H](CO)C(=O)N[C@@H](C)C(=O)N[C@@H](Cc1c[nH]cn1)C(N)=O [Clone S174]	
		~100 µM	> 20 µM	AFYDWFAKK-NH2 [Clone S167]	
		2.04 µM	2.7 µM	EHWNTVDPFYFTLFEWLRESG-NH2 [Clone S177]	
		0.24 µM	0.13 µM	EHWNTVDPFYQYFSELLRESG-NH2 [Clone S178]	
		0.418 µM	0.47 µM	NGVERAGTGDNFYDWFVAQLH-NH2 [Clone S176]	
		5.35 µM	0.54 µM	QSDSGTVHDRFYGWFRDTWAS-NH2 [Clone S179]	
